In the NIST ThermoML archive (doi:10.1007/s10765-005-8089-2):
± gives the expanded uncertainty stated by the source.

How the values were obtained:
[1] = Liquid
[2] = xn = mol fraction of the nth substance listed; details: Liquid, Falling or rolling sphere viscometry, x1 = 1

Compound: CCO [ethanol]
- viscosity ([1]; 293.15 K, 100 kPa, Falling or rolling sphere viscometry): 1.194 ± 0.026 mPa·s
- viscosity ([1]; 293.15 K, 20000 kPa, Falling or rolling sphere viscometry): 1.344 ± 0.029 mPa·s
- viscosity ([1]; 293.15 K, 40000 kPa, Falling or rolling sphere viscometry): 1.494 ± 0.032 mPa·s
- viscosity ([1]; 293.15 K, 60000 kPa, Falling or rolling sphere viscometry): 1.647 ± 0.035 mPa·s
- viscosity ([1]; 293.15 K, 80000 kPa, Falling or rolling sphere viscometry): 1.797 ± 0.039 mPa·s
- viscosity ([1]; 293.15 K, 100000 kPa, Falling or rolling sphere viscometry): 1.955 ± 0.042 mPa·s
- viscosity ([1]; 313.15 K, 100 kPa, Falling or rolling sphere viscometry): 0.826 ± 0.018 mPa·s
- viscosity ([1]; 313.15 K, 20000 kPa, Falling or rolling sphere viscometry): 0.948 ± 0.02 mPa·s
- viscosity ([1]; 313.15 K, 40000 kPa, Falling or rolling sphere viscometry): 1.059 ± 0.023 mPa·s
- viscosity ([1]; 313.15 K, 60000 kPa, Falling or rolling sphere viscometry): 1.171 ± 0.025 mPa·s
- viscosity ([1]; 313.15 K, 80000 kPa, Falling or rolling sphere viscometry): 1.282 ± 0.028 mPa·s
- viscosity ([1]; 313.15 K, 100000 kPa, Falling or rolling sphere viscometry): 1.392 ± 0.03 mPa·s
- viscosity ([1]; 333.15 K, 100 kPa, Falling or rolling sphere viscometry): 0.59 ± 0.013 mPa·s
- viscosity ([1]; 333.15 K, 20000 kPa, Falling or rolling sphere viscometry): 0.683 ± 0.015 mPa·s
- viscosity ([1]; 333.15 K, 40000 kPa, Falling or rolling sphere viscometry): 0.769 ± 0.017 mPa·s
- viscosity ([1]; 333.15 K, 60000 kPa, Falling or rolling sphere viscometry): 0.851 ± 0.018 mPa·s
- viscosity ([1]; 333.15 K, 80000 kPa, Falling or rolling sphere viscometry): 0.934 ± 0.02 mPa·s
- viscosity ([1]; 333.15 K, 100000 kPa, Falling or rolling sphere viscometry): 1.015 ± 0.022 mPa·s
- viscosity ([1]; 353.15 K, 20000 kPa, Falling or rolling sphere viscometry): 0.51 ± 0.011 mPa·s
- viscosity ([1]; 353.15 K, 40000 kPa, Falling or rolling sphere viscometry): 0.574 ± 0.012 mPa·s
- viscosity ([1]; 353.15 K, 60000 kPa, Falling or rolling sphere viscometry): 0.636 ± 0.014 mPa·s
- viscosity ([1]; 353.15 K, 80000 kPa, Falling or rolling sphere viscometry): 0.699 ± 0.015 mPa·s
- viscosity ([1]; 353.15 K, 100000 kPa, Falling or rolling sphere viscometry): 0.763 ± 0.016 mPa·s

Compound: CCO [ethanol] + Cc1ccccc1
- viscosity ([2]; 293.15 K, 100 kPa): 1.194 ± 0.026 mPa·s
- viscosity ([2]; 293.15 K, 20000 kPa): 1.344 ± 0.029 mPa·s
- viscosity ([2]; 293.15 K, 40000 kPa): 1.494 ± 0.032 mPa·s
- viscosity ([2]; 293.15 K, 60000 kPa): 1.647 ± 0.035 mPa·s
- viscosity ([2]; 293.15 K, 80000 kPa): 1.797 ± 0.039 mPa·s
- viscosity ([2]; 293.15 K, 100000 kPa): 1.955 ± 0.042 mPa·s
- viscosity ([2]; 313.15 K, 100 kPa): 0.826 ± 0.018 mPa·s
- viscosity ([2]; 313.15 K, 20000 kPa): 0.948 ± 0.02 mPa·s
- viscosity ([2]; 313.15 K, 40000 kPa): 1.059 ± 0.023 mPa·s
- viscosity ([2]; 313.15 K, 60000 kPa): 1.171 ± 0.025 mPa·s
- viscosity ([2]; 313.15 K, 80000 kPa): 1.282 ± 0.028 mPa·s
- viscosity ([2]; 313.15 K, 100000 kPa): 1.392 ± 0.03 mPa·s
- viscosity ([2]; 333.15 K, 100 kPa): 0.59 ± 0.013 mPa·s
- viscosity ([2]; 333.15 K, 20000 kPa): 0.683 ± 0.015 mPa·s
- viscosity ([2]; 333.15 K, 40000 kPa): 0.769 ± 0.017 mPa·s
- viscosity ([2]; 333.15 K, 60000 kPa): 0.851 ± 0.018 mPa·s
- viscosity ([2]; 333.15 K, 80000 kPa): 0.934 ± 0.02 mPa·s
- viscosity ([2]; 333.15 K, 100000 kPa): 1.015 ± 0.022 mPa·s
- viscosity ([2]; 353.15 K, 20000 kPa): 0.51 ± 0.011 mPa·s
- viscosity ([2]; 353.15 K, 40000 kPa): 0.574 ± 0.012 mPa·s
- viscosity ([2]; 353.15 K, 60000 kPa): 0.636 ± 0.014 mPa·s
- viscosity ([2]; 353.15 K, 80000 kPa): 0.699 ± 0.015 mPa·s
- viscosity ([2]; 353.15 K, 100000 kPa): 0.763 ± 0.016 mPa·s

Compound: CO [methanol]
- viscosity ([1]; 293.15 K, 100 kPa, Capillary tube (Ostwald / Ubbelohde) method): 0.583 ± 0.012 mPa·s
- viscosity ([1]; 293.15 K, 20000 kPa, Capillary tube (Ostwald / Ubbelohde) method): 0.646 ± 0.014 mPa·s
- viscosity ([1]; 293.15 K, 40000 kPa, Capillary tube (Ostwald / Ubbelohde) method): 0.706 ± 0.015 mPa·s
- viscosity ([1]; 293.15 K, 60000 kPa, Capillary tube (Ostwald / Ubbelohde) method): 0.767 ± 0.016 mPa·s
- viscosity ([1]; 293.15 K, 80000 kPa, Capillary tube (Ostwald / Ubbelohde) method): 0.83 ± 0.017 mPa·s
- viscosity ([1]; 293.15 K, 100000 kPa, Capillary tube (Ostwald / Ubbelohde) method): 0.894 ± 0.019 mPa·s
- viscosity ([1]; 313.15 K, 100 kPa, Capillary tube (Ostwald / Ubbelohde) method): 0.445 ± 0.009 mPa·s
- viscosity ([1]; 313.15 K, 20000 kPa, Capillary tube (Ostwald / Ubbelohde) method): 0.497 ± 0.011 mPa·s
- viscosity ([1]; 313.15 K, 40000 kPa, Capillary tube (Ostwald / Ubbelohde) method): 0.546 ± 0.012 mPa·s
- viscosity ([1]; 313.15 K, 60000 kPa, Capillary tube (Ostwald / Ubbelohde) method): 0.593 ± 0.013 mPa·s
- viscosity ([1]; 313.15 K, 80000 kPa, Capillary tube (Ostwald / Ubbelohde) method): 0.64 ± 0.013 mPa·s
- viscosity ([1]; 313.15 K, 100000 kPa, Capillary tube (Ostwald / Ubbelohde) method): 0.683 ± 0.014 mPa·s
- viscosity ([1]; 333.15 K, 100 kPa, Capillary tube (Ostwald / Ubbelohde) method): 0.343 ± 0.007 mPa·s
- viscosity ([1]; 333.15 K, 20000 kPa, Capillary tube (Ostwald / Ubbelohde) method): 0.386 ± 0.008 mPa·s
- viscosity ([1]; 333.15 K, 40000 kPa, Capillary tube (Ostwald / Ubbelohde) method): 0.424 ± 0.009 mPa·s
- viscosity ([1]; 333.15 K, 60000 kPa, Capillary tube (Ostwald / Ubbelohde) method): 0.462 ± 0.01 mPa·s
- viscosity ([1]; 333.15 K, 80000 kPa, Capillary tube (Ostwald / Ubbelohde) method): 0.501 ± 0.011 mPa·s
- viscosity ([1]; 333.15 K, 100000 kPa, Capillary tube (Ostwald / Ubbelohde) method): 0.543 ± 0.011 mPa·s
- viscosity ([1]; 353.15 K, 20000 kPa, Capillary tube (Ostwald / Ubbelohde) method): 0.303 ± 0.007 mPa·s
- viscosity ([1]; 353.15 K, 40000 kPa, Capillary tube (Ostwald / Ubbelohde) method): 0.337 ± 0.007 mPa·s
- viscosity ([1]; 353.15 K, 60000 kPa, Capillary tube (Ostwald / Ubbelohde) method): 0.368 ± 0.008 mPa·s
- viscosity ([1]; 353.15 K, 80000 kPa, Capillary tube (Ostwald / Ubbelohde) method): 0.4 ± 0.009 mPa·s
- viscosity ([1]; 353.15 K, 100000 kPa, Capillary tube (Ostwald / Ubbelohde) method): 0.433 ± 0.009 mPa·s
